Experimental findings from patent US20250228242A1 (priority 2021, published 2025) are described below.

The structures appear in SMILES notation. Counter-ions that a name gives are not always drawn.

One experiment has as its system Phytophthora infestans. In words: whole plant or invertebrate. The conditions noted are these: in Solanum tuberosum, 120 h, read-out: P. infestans % inhibition. Type of experiment: in vivo.
The next experiment has as its system Rhodococcus sp. In words: Bacterial liquid culture growth curves (OD600), Rhodococcus sp. Conditions: 18.5 h, read-out: Absolute growth rate relative to mock control, Rhodococcus sp.
Experiment [1] has as its system Pseudomonas syringae pv. tomato (Pto) DC3000. In words: Bacterial liquid culture growth curves (OD600), Pto DC3000. Conditions: 18.5 h, read-out: Absolute growth rate relative to mock control, Pto DC3000.
The next experiment has as its system P. infestans. Put plainly: whole plant or invertebrate. Type of experiment: in vivo. The conditions noted are these: Phytophthora infestans, in Solanum tuberosum, read-out: P. infestans % inhibition.

The inhibition is the share of the control response that was lost under treatment.

For the compound `Ic1ccc(-c2cc(-c3ccc4c(c3)OCO4)n[nH]2)cc1` [Compound 15, 3-(1,3-Benzodioxol-5-yl)-5-(4-iodophenyl)-1H-pyrazole], the inhibition at 100 µM with Phytophthora infestans was found to be 56%.
Same read-out and setting: the figure for `c1ccc(-c2cc(-c3ccc4c(c3)OCO4)no2)cc1` [Compound 17, 3-(1,3-Benzodioxol-5-yl)-5-phenylisoxazole] is 13%; for `COc1ccc(-c2cc(-c3cccc(F)c3)on2)cc1OC` [Compound 20, 3-(3,4-Dimethoxyphenyl)-5-(3-fluorophenyl)isoxazole] it is 21%; for `COc1ccc(-c2cc(-c3ccc(Cl)cc3)n[nH]2)cc1` [Compound 31, 3-(4-Chlorophenyl)-5-(4-methoxyphenyl)-1H-pyrazole] it is 77%.
As to `CNc1ccc(-c2cc(-c3cccc(Br)c3)[nH]n2)cc1` [Compound 42, 5-(3-Bromophenyl)-3-[4-(methylamino)phenyl]-1H-pyrazole], the activity at 100 µM was 72% with Rhodococcus sp. and 73% in experiment [1].
The corresponding values for `Fc1cc(F)cc(-c2cc(-c3ccc4c(c3)OCO4)n[nH]2)c1` [Compound 104, 3-(1,3-Benzodioxol-5-yl)-5-(3,5-difluorophenyl)-1H-pyrazole] are 51% and 101%.
For `N[C@@H](CC(=O)O)C(=O)Nc1ccc(-c2nc(-c3cccc(C(F)(F)F)c3)no2)cc1` [Compound 133, (3S)-3-Amino-4-oxo-4-[(4-{3-[3-(trifluoromethyl)phenyl]-1,2,4-oxadiazol-5-yl}phenyl)amino]butanoic acid hydrochloride], in the experiment with P. infestans, the inhibition at 100 µM turned out to be 85%.
Same read-out and setting: the figure for `CCOc1ccc(-c2cc(-c3ccc(C)c(C)c3)[nH]n2)cc1` [Compound 134, 3-(3,4-Dimethylphenyl)-5-(4-ethoxyphenyl)-1H-pyrazole] is 19%; for `O=C(O)c1ccc(-c2nc(-c3ccc(N4CCCC4)cc3)c[nH]2)cc1` [Compound 135, 4-{4-[4-(Pyrrolidin-1-yl)phenyl]-1H-imidazol-2-yl}benzoic acid] it is 51%; for `O=S(=O)(Nc1cccc(-c2nc(-c3ccc(OC(F)(F)F)cc3)c[nH]2)c1)c1ccc(Cl)cc1` [Compound 136, 4-Chloro-N-(3-{4-[4-(trifluoromethoxy)phenyl]-1H-imidazol-2-yl}phenyl)benzenesulfonamide] it is 7%.
On the same count and under the same terms, the value for `COCCOC(=O)Nc1cccc(-c2nc(-c3ccc(OC(F)(F)F)cc3)c[nH]2)c1` [Compound 137, 2-Methoxyethyl (3-{4-[4-(trifluoromethoxy)phenyl]-1H-imidazol-2-yl}phenyl) carbamate] was 77%; that for `CCc1ccc(-c2c[nH]c(-c3cccc(C(=O)N4CCN(C)CC4)c3)n2)cc1` [Compound 138, (4-Methylpiperazin-1-yl){3-[4-(4-ethylphenyl)-1H-imidazol-2-yl]phenyl}methanone] was 68%; that for `COCCOC(=O)Nc1cccc(-c2nc(-c3ccc(OC)cc3)n[nH]2)c1` [Compound 139, 2-Methoxyethyl {3-[3-(4-methoxyphenyl)-1H-1,2,4-triazol-5-yl]phenyl}carbamate] was 48%.
Still for that read-out and setting: the value for `COc1ccc(-c2n[nH]c(-c3cccc(NC(=O)[C@H](C)N)c3)n2)cc1` [Compound 140, (2S)-2-Amino-N-{3-[3-(4-methoxyphenyl)-1H-1,2,4-triazol-5-yl]phenyl}propenamide hydrochloride] was 39%; that for `N[C@@H](Cc1ccccc1)C(=O)Nc1cccc(-c2nc(-c3ccc(OC(F)(F)F)cc3)c[nH]2)c1` [Compound 141, (2S)-2-Amino-N-{3-[4-(4-trifluoromethoxyphenyl)-1H-imidazol-2-yl]phenyl}-3-phenylpropanamide hydrochloride] was 93%.
For the compound `O=C(O)c1ccc(-c2cc(-c3ccc(F)cc3)[nH]n2)cc1` [Compound 142, 4-[5-(4-Fluorophenyl)-1H-pyrazol-3-yl]benzoic acid], the inhibition at 100 µM in the experiment with P. infestans was determined as 46%.
Same read-out and setting: the figure for `COc1ccc(-c2c[nH]c(-c3cccc(N4CCOCC4)c3)n2)cc1OC` [Compound 144, 4-{3-[4-(3,4-Dimethoxyphenyl)-1H-imidazol-2-yl]phenyl}morpholine] is 81%; for `CC(C)[C@H](N)C(=O)Nc1cccc(-c2cc(-c3cccc(OC(F)(F)F)c3)[nH]n2)c1` [Compound 145, (2S)-2-Amino-N-{3-[5-(3-trifluoromethoxyphenyl)-1H-pyrazol-3-yllphenyl}-3-methylbutanamide hydrochloride] it is 97%; for `CN1CCN(c2ccc(-c3cc(-c4cc(F)cc(F)c4)[nH]n3)cc2)CC1` [Compound 146, 1-{4-[5-(3,5-Difluorophenyl)-1H-pyrazol-3-yl]phenyl}-4-methylpiperazine] it is 95%.
`CN1CCN(C(=O)c2cccc(-c3cc(-c4ccc(C(F)(F)F)cc4)[nH]n3)c2)CC1` [Compound 147, {3-[5-(4-Trifluoromethylphenyl)-1H-pyrazol-3-yl]phenyl}(4-methylpiperazin-1-yl)methanone]: in the experiment on P. infestans, the inhibition at 100 µM amounted to 81%.
Same read-out and setting: the figure for `COCCNC(=O)Nc1cccc(-c2cc(-c3cccc(OC(F)(F)F)c3)[nH]n2)c1` [Compound 148, 1-{3-[5-(3-Trifluoromethoxyphenyl)-1H-pyrazol-3-yl]phenyl}-3-(2-methoxyethyl)urea] is 6%.
Consider `CN1CCN(c2ccc(-c3cc(-c4cc(F)ccc4F)[nH]n3)cc2)CC1` [Compound 149, 1-{4-[5-(2,5-Difluorophenyl)-1H-pyrazol-3-yl]phenyl}-4-methylpiperazine], for which the inhibition at 100 µM in the experiment on P. infestans was found to be 8%.
For the compound `Cc1cccc(-c2nc(-c3cccc(F)c3)c[nH]2)c1` [Compound 150, 4-(3-Fluorophenyl)-2-(3-methylphenyl)-1H-imidazole], the inhibition at 100 µM in the experiment with P. infestans was determined as 91%.
Same read-out and setting: the value for `Fc1cccc(-c2c[nH]c(-c3cccc(C(F)(F)F)c3)n2)c1` [Compound 151, 4-(3-Fluorophenyl)-2-[3-(trifluoromethyl)phenyl]-1H-imidazole] was 85%; that for `CCc1ccc(-c2c[nH]c(-c3ccc(NS(C)(=O)=O)cc3)n2)cc1` [Compound 152] was 91%.
For the compound `CCc1ccc(-c2c[nH]c(-c3ccc(NC(=O)[C@@H]4CCCN4)cc3)n2)cc1` [Compound 153, (2S)-N-{4-[4-(4-Ethylphenyl)-1H-imidazol-2-yl]phenyl}pyrrolidine-2-carboxamide dihydrochloride], the inhibition at 100 µM with P. infestans was found to be 95%.
Same read-out and setting: the value for `CCc1ccc(-c2c[nH]c(-c3ccc(NC(=O)OCCOC)cc3)n2)cc1` [Compound 154, 2-Methoxyethyl {4-[4-(4-ethylphenyl)-1H-imidazol-2-yl]phenyl}carbamate] was 89%; that for `CCc1ccc(-c2c[nH]c(-c3ccc(NC(C)=O)cc3)n2)cc1` [Compound 155, N-{4-[4-(4-Ethylphenyl)-1H-imidazol-2-yl]phenyl}acetamide] was 16%.
Still for that read-out and setting: the value for `Cc1ccc(-c2n[nH]c(-c3cccc(N4CCCC4)c3)n2)cc1C` [Compound 156, 3-(3,4-Dimethylphenyl)-5-[3-(pyrrolidin-1-yl)phenyl]-1H-1,2,4-triazole] was 25%; that for `Cc1ccc(-c2n[nH]c(-c3cccc(NC(=O)OC(C)C)c3)n2)cc1` [Compound 157, Propan-2-yl {3-[3-(4-methylphenyl)-1H-1,2,4-triazol-5-yl]phenyl}carbamate] was 17%; that for `COc1ccc(-c2nc(-c3cccc(Cl)c3)n[nH]2)cc1OC` [Compound 158, 3-(3-Chlorophenyl)-5-(3,4-dimethoxyphenyl)-1H-1,2,4-triazole] was 59%.
Same read-out and setting: the value for `Cc1ccc(-c2n[nH]c(-c3cccc(NC(=O)[C@@H](N)CC(C)C)c3)n2)cc1` [Compound 159, (2S)-2-Amino-N-{3-[3-(4-methylphenyl)-1H-1,2,4-triazol-5-yl]phenyl}-4-methylpentanamide] was 97%.
Take `COc1ccc(-c2nc(-c3ccc(C)c(C)c3)n[nH]2)cc1OC` [Compound 160, 5-(3,4-Dimethoxyphenyl)-3-(3,4-dimethylphenyl)-1H-1,2,4-triazole]: the inhibition at 100 µM in the experiment with P. infestans came out at 76%.
Same read-out and setting: the value for `FC(F)(F)c1cccc(-c2nc(-c3cccc(Cl)c3)n[nH]2)c1` [Compound 161, 3-(3-Chlorophenyl)-5-[3-(trifluoromethyl)phenyl]-1H-1,2,4-triazole] was 50%; that for `Cc1ccc(-c2cc(-c3ccc(NC(=O)[C@@H](N)CCC(N)=O)cc3)[nH]n2)cc1` [Compound 162, (2S)-2-Amino-N1-{4-[3-(4-methylphenyl)-1H-pyrazol-5-yl]phenyl}pentanediamide hydrochloride] was 34%.
Same read-out and setting: the figure for `O=C(c1cccc(-c2nc(-c3cccc(F)c3)n[nH]2)c1)N1CCOCC1` [Compound 163, {3-[3-(3-Fluorophenyl)-1H-1,2,4-triazol-5-yl]phenyl}(morpholin-4-yl)methanone] is 22%; for `COc1ccc(-c2n[nH]c(-c3ccc(Br)cc3)n2)cc1` [Compound 164, 5-(4-Bromophenyl)-3-(4-methoxyphenyl)-1H-1,2,4-triazole] it is 8%; for `CCOc1cccc(-c2cc(-c3ccc(OC(F)(F)F)cc3)[nH]n2)c1` [Compound 165, 5-(3-Ethoxyphenyl)-3-[4-(trifluoromethoxy)phenyl]-1H-pyrazole] it is 2%.
Same read-out and setting: the value for `O=C(O)c1cccc(-c2cc(-c3ccc4c(c3)OCO4)[nH]n2)c1` [Compound 166, 3-[5-(1,3-Benzodioxol-5-yl)-1H-pyrazol-3-yl]benzoic acid] was 6%.
